Reference: US8153663B2, “3-amino-indazole or 3-amino-4,5,6,7-tetrahydro-indazole derivatives” (Hoffmann-La Roche Inc., priority 2008, dated 2012)

Target: T1, FXR ligand binding domain (GST-FXR LBD fusion protein, human FXR aa 193-473) (Homo sapiens, UniProt Q96RI1)
T1 construct: made in house; host or cells: E. coli BL21(pLysS)
T1 sequence (Q96RI1 193-472 isoform Q96RI1-2 limits assumed): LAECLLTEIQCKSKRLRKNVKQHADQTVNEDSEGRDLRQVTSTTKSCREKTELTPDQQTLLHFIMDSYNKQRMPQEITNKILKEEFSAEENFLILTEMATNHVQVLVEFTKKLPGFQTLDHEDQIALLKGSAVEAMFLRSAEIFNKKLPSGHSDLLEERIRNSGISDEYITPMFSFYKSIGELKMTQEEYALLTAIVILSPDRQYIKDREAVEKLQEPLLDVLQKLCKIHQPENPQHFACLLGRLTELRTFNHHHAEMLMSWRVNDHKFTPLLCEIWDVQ
Test: Radioligand binding assay (radioligand displacement, scintillation proximity)
Conditions: 40 nM GST-FXR LBD on SPA beads, radioligand 2,N-dicyclohexyl-2-[2-(2,4 dimethoxy-phenyl)-benzoimidazol-1-yl]-acetamide, RT 30 minutes
Method: The following tests were carried out in order to determine the activity of the compounds of formula I. Background information on the binding assay can be found in: Nichols J S et al. “Development of a scintillation proximity assay for peroxisome proliferator-activated receptor gamma ligand binding domain”, (1998) Anal. Biochem. 257: 112-119.
Bacterial and mammalian expression vectors were constructed to produce glutathione-s-transferase (GST) and Gal4 DNA binding domain (GAL) proteins fused to the ligand binding domain (LBD) of human FXR (aa 193-473). To accomplish this, the portions of the sequences encoding the FXR LBD were amplified by polymerase chain reaction (PCR) from a full-length clone by PCR and then subcloned into the plasmid vectors. The final clone was verified by DNA sequence analysis.
The induction, expression, and subsequent purification of GST-LBD fusion protein was performed in E. coli strain BL21(pLysS) cells by standard methods (Current Protocols in Molecular Biology, Wiley Press, ed. Ausubel et al).
Radioligand Binding Assay
Binding of test substances to the FXR ligand binding domain was assessed in a radioligand displacement assay. The assay was performed in a buffer consisting of 50 mM Hepes, pH 7.4, 10 mM NaCl, 5 mM MgCl2. For each reaction well in a 96-well plate, 40 nM of GST-FXR LBD fusion protein was bound to 10 μg glutathione ytrium silicate SPA beads (Pharmacia Amersham) in a final volume of 50 μl by shaking. A radioligand (e.g. 40 nM) of 2,N-dicyclohexyl-2-[2-(2,4 dimethoxy-phenyl)-benzoimidazol-1-yl]-acetamide) was added, and the reaction incubated at RT for 30 minutes in the presence of test compounds followed by scintillation proximity counting. All binding assays were performed in 96-well plates and the amount of bound ligand was measured on a Packard TopCount using OptiPlates (Packard). Dose response curves were performed within a range of concentration from 6×10^−9 M to 2.5×10^−5 M.

Row | SMILES | IC50 [nM]
1 | O=C(O)c1ccc(NC(=O)N(c2c3cc(F)c(F)cc3nn2-c2ccc(Cl)cc2)C2CCCCC2)c(Cl)c1 [Example 16, 3-Chloro-4-{3-[2-(4-chloro-phenyl)-5,6-difluoro-2H-indazol-3-yl]-3-cyclohexyl-ureido}-benzoic acid] | 400
2 | O=C(OC1CCCCC1)N(c1c2ccccc2nn1-c1ccc(Cl)cc1)C1CCCCC1 [Example 37, [2-(4-Chloro-phenyl)-2H-indazol-3-yl]-cyclohexyl-carbamic acid cyclohexyl ester] | 60
3 | O=C(N[C@H]1CC[C@H](O)CC1)N(c1cccc(Cl)c1)c1c2ccccc2nn1-c1ccc(Cl)cc1 [Example 41, trans-1-(3-Chloro-phenyl)-1-[2-(4-chloro-phenyl)-2H-indazol-3-yl]-3-(4-hydroxy-cyclohexyl)-urea] | 300
4 | O=C(NC1CCCCC1)N(c1c2ccccc2nn1-c1ccc(Cl)cc1)C1CCOCC1 [Example 10, 1-[2-(4-Chloro-phenyl)-2H-indazol-3-yl]-3-cyclohexyl-1-(tetrahydro-pyran-4-yl)-urea] | 660
5 | CC(C)(C(=O)O)c1ccc(NC(=O)N(c2c3ccccc3nn2-c2ccc(Cl)cc2)C2CCCCC2)c(F)c1 [Example 32, 2-(4-{3-[2-(4-Chloro-phenyl)-2H-indazol-3-yl]-3-cyclohexyl-ureido}-3-fluoro-phenyl)-2-methyl-propionic acid] | 3350
6 | O=C(NC1CCCCC1)N(c1ccc(F)c(Cl)c1)c1c2ccccc2nn1-c1ccc(Cl)cc1 [Example 28, 1-(3-Chloro-4-fluoro-phenyl)-1-[2-(4-chloro-phenyl)-2H-indazol-3-yl]-3-cyclohexyl-urea] | 70
7 | O=C(NC1CCCCC1)N(c1c2ccccc2nn1-c1ccc(Cl)cc1)C1CCCCC1 [Example 11, 1-[2-(4-Chloro-phenyl)-2H-indazol-3-yl]-1,3-dicyclohexyl-urea] | 20
8 | O=C(NC1CCCCC1)N(c1ccccc1)c1c2ccccc2nn1-c1ccc(Cl)cc1 [Example 15, 1-[2-(4-Chloro-phenyl)-2H-indazol-3-yl]-3-cyclohexyl-1-phenyl-urea] | 460
9 | CCCCN(C(=O)Nc1ccc(C(=O)O)cc1Cl)c1c2ccccc2nn1-c1ccc(Cl)cc1 [Example 12, 4-{3-Butyl-3-[2-(4-chloro-phenyl)-2H-indazol-3-yl]-ureido}-3-chloro-benzoic acid] | 790
10 | O=C(NC1CCCCC1)N(c1cccc(Cl)c1)c1c2ccc(F)cc2nn1-c1ccc(Cl)cc1 [Example 44, 1-(3-Chloro-phenyl)-1-[2-(4-chloro-phenyl)-6-fluoro-2H-indazol-3-yl]-3-cyclohexyl-urea] | 100
11 | O=C(NC1CCCCC1)N(c1cccc(Cl)c1)c1c2cc(F)c(F)cc2nn1-c1cccc(Cl)c1 [Example 43, 1-(3-Chloro-phenyl)-1-[2-(3-chloro-phenyl)-5,6-difluoro-2H-indazol-3-yl]-3-cyclohexyl-urea] | 80
12 | O=C(O)c1ccc(NC(=O)N(c2c3ccccc3nn2-c2ccc(Cl)cc2)C2CCC2)c(Cl)c1 [Example 31, 3-Chloro-4-{3-[2-(4-chloro-phenyl)-2H-indazol-3-yl]-3-cyclobutyl-ureido}-benzoic acid] | 4310
13 | O=C(NC1CCCC1)N(c1c2ccccc2nn1-c1ccc(Cl)cc1)C1CCCC1 [Example 38, 1-[2-(4-Chloro-phenyl)-2H-indazol-3-yl]-1,3-dicyclopentyl-urea] | 240
14 | O=C(O)Cc1ccc(NC(=O)N(c2c3ccccc3nn2-c2ccc(Cl)cc2)C2CCCCC2)c(Cl)c1 [Example 21, (3-Chloro-4-{3-[2-(4-chloro-phenyl)-2H-indazol-3-yl]-3-cyclohexyl-ureido}-phenyl)-acetic acid] | 720
15 | O=C(NC1CCCCC1)N(c1cccc(Cl)c1)c1c2ccccc2nn1-c1ccc(Cl)cc1 [Example 19, 1-(3-Chloro-phenyl)-1-[2-(4-chloro-phenyl)-2H-indazol-3-yl]-3-cyclohexyl-urea] | 20
16 | O=C(NC1CCCCC1)N(c1c2ccccc2nn1-c1ccccc1)C1CCCCC1 [Example 1, 1,3-Dicyclohexyl-1-(2-phenyl-2H-indazol-3-yl)-urea] | 40
17 | CCCCN(C(=O)NC1CCCCC1)c1c2ccccc2nn1-c1ccc(Cl)cc1 [Example 4, 1-Butyl-1-[2-(4-chloro-phenyl)-2H-indazol-3-yl]-3-cyclohexyl-urea] | 180
18 | COCCN(C(=O)NC1CCCCC1)c1c2ccccc2nn1-c1ccc(Cl)cc1 [Example 17, 1-[2-(4-Chloro-phenyl)-2H-indazol-3-yl]-3-cyclohexyl-1-(2-methoxy-ethyl)-urea] | 2330
19 | CCOc1cccc(N(C(=O)NC2CCCCC2)c2c3ccccc3nn2-c2ccc(Cl)cc2)c1 [Example 25, 1-[2-(4-Chloro-phenyl)-2H-indazol-3-yl]-3-cyclohexyl-1-(3-ethoxy-phenyl)-urea] | 790
20 | O=C(O)CCc1ccc(NC(=O)N(c2c3ccccc3nn2-c2ccc(Cl)cc2)C2CCCCC2)c(F)c1 [Example 26, 3-(4-{3-[2-(4-Chloro-phenyl)-2H-indazol-3-yl]-3-cyclohexyl-ureido}-3-fluoro-phenyl)-propionic acid] | 340
21 | O=C(O)c1ccc(NC(=O)N(Cc2ccccc2)c2c3ccccc3nn2-c2ccc(Cl)cc2)c(Cl)c1 [Example 9, 4-{3-Benzyl-3-[2-(4-chloro-phenyl)-2H-indazol-3-yl]-ureido}-3-chloro-benzoic acid] | 1080
22 | O=C(NC1CCCCC1)N(c1cccc(Cl)c1)c1c2ccc(F)cc2nn1-c1cccc(Cl)c1 [Example 35, 1-(3-Chloro-phenyl)-1-[2-(3-chloro-phenyl)-6-fluoro-2H-indazol-3-yl]-3-cyclohexyl-urea] | 20
23 | O=C(NC1CCCCC1)N(c1c2ccc(F)cc2nn1-c1ccc(Cl)cc1)C1CCCCC1 [Example 40, 1-[2-(4-Chloro-phenyl)-6-fluoro-2H-indazol-3-yl]-1,3-dicyclohexyl-urea] | 20
24 | O=C(Nc1ccccc1F)N(c1c2ccccc2nn1-c1ccccc1)C1CCCCC1 [Example 3, 1-Cyclohexyl-3-(2-fluoro-phenyl)-1-(2-phenyl-2H-indazol-3-yl)-urea] | 830
